US4585861A, “1,2,4-triazine derivatives” (Eli Lilly and Company, priority 1985, dated 1986)

Columns and labels:
[1] = Metrazole Induced Convulsion Inhibition Assay; type: in vivo, Cox standard strain albino male mice; conditions: Mus musculus; oral gavage, 1 h before metrazole 110 mg./kg. i.p.; active = total score of 6 or less (3 mice, range 0-12); read-out: Minimum active oral dose, Metrazole
Procedure: (§1) In this assay, a compound to be tested was suspended in acacia (5%) and administered by gavage to each of three Cox standard strain albino male mice (18-24 grams) at the dose level being investigated. One hour after the oral administration, a water solution of metrazole (pentylenetetrazole) was administered by the intraperitoneal route to each mouse at a dose of 110 mg./kg. […] A score of 0 was assigned to a mouse not showing any signs of convulsant activity; a score of 1 was given to mice developing clonic convulsions; a score of 2 was given to mice showing flexor tonic convulsions; a score of 3 was given to mice showing extensor tonic convulsions; and a score of 4 was given to mice that died within the one hour. The scores of the three mice were totalled for each compound and dose level. The scores can range from 0 to 12; a score of 6 or less was interpreted as indicative of an active compound at that dose level. Values reported in Table 2 below are the minimum oral dose levels (mg./kg.) where activity as defined above was observed.

[2] = target: GABA receptor; test: In vitro activation of GABA binding ([3H]GABA, Triton X-100 treated membrane protein); conditions: average of one or more tests, read-out: SC50 GABA (nanomolar concentration producing a 50% increase in binding)
Procedure: (§2) The novel compounds of this invention were examined for their in vitro ability to activate GABA and benzodiazepine (BZ) binding. To measure the effect of a compound on GABA binding, Triton X-100 (octylphenoxy polyethoxyethanol, Rohm and Haas Co.) treated membrane protein was incubated in the presence of the compound and [^3 H]GABA as detailed by Horng and Wong, J. Neurochemistry, 32 (5), 1379 (1979). To examine BZ binding, H-flunirazepam and the compounds were incubated with native membrane protein as reported by Wong, et al, Brain Res. Bull., 5 (Suppl. 2), 853 (1980). The results in Table 1 are the nanomolar concentrations of compounds (by Example No.) which produced a 50 percent increase (SC50) in GABA or BZ binding. Each result is the average of one or more tests.

[3] = Electroshock Induced Convulsion Inhibition Assay; type: in vivo, Cox standard strain albino male mice; conditions: Mus musculus; oral; 0.1 second, 50 milliampere corneal electroshock; active = total score of 6 or less; read-out: Minimum active oral dose, Electro-Shock
Procedure: as §1
The drug administration and test conditions used in this assay were similar to those used in the metrazole induced convulsion inhibition assay above except that a 0.1 second, 50 milliampere electroshock through corneal electrodes induced the convulsion instead of metrazole. The animals were examined and evaluated immediately after the electroshock and were scored as before. The results in Table 2 are expressed as the lowest dose of each compound tested which was active as previously defined. For comparison, 18 milliamperes was usually sufficient to produce extensor tonic convulsions in about half of the control animals; at 50 milliamperes, almost all control animals died. Diazepam was active at about 1 mg./kg.

[4] = Mouse Writhing Inhibition Assay; type: in vivo, Cox standard strain albino male mice; conditions: oral gavage 60 min before acetic acid 55 mg./kg. i.p., active = less than ten writhes, read-out: Minimum active oral dose, Mouse Writhing
Procedure: Writhing, which is characterized by contraction of the abdominal musculature, extension of the hindlegs, and rotation of the trunk, was induced in Cox standard strain albino male mice. The mice, weighing 18-24 grams, were fasted overnight and given the test compound by gavage in an acacia suspension (5%) 60 minutes before writhing was induced by the intraperitoneal administration of 55 mg./kg. of acetic acid (0.55 percent). Each treatment group consisted of 3 mice. The total number of writhes for the treatment group was determined during a 5-minute observation starting 5 minutes after acetic acid administration.

[5] = target: benzodiazepine receptor; test: In vitro activation of benzodiazepine (BZ) binding (flunirazepam, native membrane protein); conditions: average of one or more tests, read-out: SC50 BZ (nanomolar concentration producing a 50% increase in binding)
Procedure: as §2

[6] = Appetite Suppression Assay; type: in vivo, Cox standard strain albino male mice; conditions: Mus musculus; oral gavage 30 min before feeding; active = weight gain of less than 10% of weight lost on fasting; read-out: Minimum active oral dose, Appetite Suppression
Procedure: In this test, groups of three Cox standard strain albino male mice were weighed (18-24 grams) and then fasted overnight (16-18 hours). The mice were reweighed and then given the test compound in a suspension of acacia (5%) by gavage. Thirty minutes after oral administration, the mice were allowed to eat freely for one hour. After the eating period, the mice were weighed once more. The percent of weight gained (from the time the mice were given the test compound to after the feeding period) compared to weight lost during the fast period was calculated. The non-drug treated control animals gained back 35-55% of the weight lost on fasting. Any compound at the dose level tested which produced a weight gain of less than 10% was considered to be active. The results in Table 2 report the lowest dose level in which there was activity for each compound tested. Dextroamphetamine sulfate is active in this system at about 2.5 mg./kg.

Row | SMILES | minimal effective dose [1] | EC50 [2] | minimal effective dose [3] | minimal effective dose [4] | EC50 [5] | minimal effective dose [6]
1 | Cc1ccc(-c2nnc(N3CCCCC3)nc2-c2ccc(C)cc2)cc1 [Example 20, 5,6-bis(4-methylphenyl)-3-(1-piperidinyl)-1,2,4-triazine] | 12.5 mg/kg | 5200 nM | 50 mg/kg | 12.5 mg/kg | 515 nM | 12.5 mg/kg
2 | Cc1ccc(-c2nnc(N3CCCCCC3)nc2-c2ccc(C)cc2)cc1 [Example 21, 1-[5,6-bis(4-methylphenyl)-1,2,4-triazin-3-yl]-hexahydro-1H-azepine] | > 200 mg/kg | 2000 nM | > 200 mg/kg | > 200 mg/kg | 600 nM | > 200 mg/kg
3 | Cc1ccc(-c2nnc(N3CCCC(O)C3)nc2-c2ccc(C)cc2)cc1 (stereo not drawn) [Example 23, 1-[5,6-bis(4-methylphenyl)-1,2,4-triazin-3-yl]-3-piperidinol] | 50 mg/kg | 400 nM | 50 mg/kg | 12.5 mg/kg | 700 nM | 12.5 mg/kg
4 | CC(=O)OC1CCCN(c2nnc(-c3ccc(C)cc3)c(-c3ccc(C)cc3)n2)C1 (stereo not drawn) [Example 24, 1-[5,6-bis(4-methylphenyl)-1,2,4-triazine-3-yl]-3-piperidinol, acetate (ester)] | > 200 mg/kg | 160 nM | > 200 mg/kg | > 200 mg/kg | 180 nM | > 200 mg/kg
5 | COC1CCN(c2nnc(-c3ccc(C)cc3)c(-c3ccc(C)cc3)n2)CC1 [Example 26, 3-(4-methoxy-1-piperidinyl)-5,6-bis(4-methylphenyl)-1,2,4-triazine] | 6.2 mg/kg | 80 nM | 6.2 mg/kg | 6.2 mg/kg | 90 nM | 6.2 mg/kg
6 | Cc1ccc(-c2nnc(N3CCC(OC(=O)Oc4ccccc4)CC3)nc2-c2ccc(C)cc2)cc1 [Example 28, carbonic acid, 1-[5,6-bis(4-methylphenyl)-1,2,4-triazin-3-yl]-4-piperidinyl phenyl ester] | > 200 mg/kg | 160 nM | > 200 mg/kg | > 200 mg/kg | 650 nM | > 200 mg/kg
7 | Cc1ccc(-c2nnc(N3CCC(OC(N)=O)CC3)nc2-c2ccc(C)cc2)cc1 [Example 29, 1-[5,6-bis(4-methylphenyl)-1,2,4-triazin-3-yl]-4-piperidinol, carbamate (ester)] | > 6.25 mg/kg | 56 nM | > 6.25 mg/kg | 1.56 mg/kg | 15 nM | 0.4 mg/kg
8 | Cc1ccc(-c2nnc(N3CCC(OS(C)(=O)=O)CC3)nc2-c2ccc(C)cc2)cc1 [Example 32, 1-[5,6-bis(4-methylphenyl)-1,2,4-triazin-3-yl]-4-piperidinol, methane sulfonate (ester)] | > 6.25 mg/kg | 68 nM | > 6.25 mg/kg | 0.4 mg/kg | 6 nM | 0.4 mg/kg
9 | Cc1ccc(-c2nnc(N3CCC(OS(=O)(=O)c4ccc(C)cc4)CC3)nc2-c2ccc(C)cc2)cc1 [Example 33, 1-[5,6-bis(4-methylphenyl)-1,2,4-triazin-3-yl]-4-piperidinol, 4-methylbenzene sulfonate (ester)] | > 200 mg/kg | 8000 nM | > 200 mg/kg | > 200 mg/kg | 1200 nM | > 200 mg/kg
10 | CCOC(=O)C1CCN(c2nnc(-c3ccc(C)cc3)c(-c3ccc(C)cc3)n2)CC1 [Example 35, 1-[5,6-bis(4-methylphenyl)-1,2,4-triazin-3-yl]-4-piperidinecarboxylic acid, ethyl ester] | > 200 mg/kg | 12 nM | > 200 mg/kg | > 200 mg/kg | 18 nM | > 200 mg/kg
11 | Cc1ccc(-c2nnc(N3CCC4(CC3)OCCO4)nc2-c2ccc(C)cc2)cc1 [Example 38, 8-[5,6-bis(4-methylphenyl)-1,2,4-triazin-3-yl]-1,4-dioxa-8-azaspiro(4.5)decane] | > 200 mg/kg | > 10000 nM | > 200 mg/kg | > 200 mg/kg | 8000 nM | > 200 mg/kg
12 | Cc1ccc(-c2nnc(N3CCC(=O)CC3)nc2-c2ccc(C)cc2)cc1 [Example 39, 1-[5,6-bis(4-methylphenyl)-1,2,4-triazin-3-yl]-4-piperidinone] | 50 mg/kg | 200 nM | 50 mg/kg | 50 mg/kg | 430 nM | 12.5 mg/kg
13 | Cc1ccc(-c2ncc(N3CCC(O)CC3)nc2-c2ccc(C)cc2)cc1 [Example 42, 1-[5,6-bis(4-methylphenyl)pyrazin-2-yl]-4-piperidinol] | 12.5 mg/kg | 1200 nM | 50 mg/kg | 12.5 mg/kg | 400 nM | 12.5 mg/kg
14 | CC(=O)OC1CCN(c2cnc(-c3ccc(C)cc3)c(-c3ccc(C)cc3)n2)CC1 [Example 43, 1-[5,6-bis(4-methylphenyl)pyrazin-2-yl]-4-piperidinol, acetate (ester)] | 25 mg/kg | 7 nM | 100 mg/kg | 100 mg/kg | 10 nM | 25 mg/kg
